Reference: patent US9084785B2, “Composition for accelerating change in muscle type” (AMOREPACIFIC CORPORATION, priority 2010, dated 2015)

Columns and labels:
C57BL/6 mice [1] = assay: Change in muscle type (slow-twitch myosin staining of plantaris muscle); format: in vivo, mouse; conditions: 200 mg/kg oral once a day, 8 weeks
Protocol: 5-week-old male C57BL/6 mice were grouped with 10 mice per group to evaluate change in muscle type after administration of test substances. The experimental mice were orally administered with Gynostemma pentaphyllum leaf extract, Artemisia princeps extract, astragali radix extract or EPA alone, a mixture of Artemisia princeps extract, Gynostemma pentaphyllum leaf extract and astragali radix extract or a mixture of EPA, Gynostemma pentaphyllum leaf extract and astragali radix extract (200 mg/kg) as test substances for 8 weeks, once a day. The mice were fasted for 12 hours before autopsy. Plantaris muscle was taken from the mice of each test group and frozen in liquid nitrogen. The frozen tissue was sliced to 10-μm thickness using a cryotome, fixed in acetone for 10 minutes, and washed 3 times with PBS. After blocking for 2 hours with PBS containing 10% FBS, the tissue sections were treated with anti-slow-twitch myosin antibody (Abcam, Cambridge, UK) as primary antibody and with fluorescein isothiocyanate (FITC)-conjugated anti-mouse IgG antibody (Molecular Probes) as secondary antibody. After mounting with antifade solution, the sections were examined by confocal microscopy.

C57BL/6 mice [2] = assay: Blood analysis (blood sugar, serum triglyceride and cholesterol); format: in vivo, mouse; conditions: 200 mg/kg oral once a day, 8 weeks
Protocol: 5-week-old male C57BL/6 mice were grouped with 10 mice per group. They were orally administered with Gynostemma pentaphyllum leaf extract, Artemisia princeps extract, astragali radix extract or EPA alone, a mixture of Artemisia princeps extract, Gynostemma pentaphyllum leaf extract and astragali radix extract or a mixture of EPA, Gynostemma pentaphyllum leaf extract and astragali radix extract (200 mg/kg) as test substances for 8 weeks, once a day. Then, blood analysis was performed to evaluate blood sugar level and serum triglyceride and cholesterol levels. The blood sugar level was measured using the Accu-Check Active kit (Roche Diagnostics, Seoul, Korea). The blood sample was centrifuged at 3000 rpm for 10 minutes to separate serum. Triglyceride and cholesterol levels in the separated serum were analyzed using the […] analyzer (Vital Scientific, […], The Netherlands).

CC/C=C\C/C=C\C/C=C\C/C=C\C/C=C\CCCC(=O)O [EPA, eicosapentaenoic acid]
Fast-twitch muscle (%) (C57BL/6 mice [1]): 70.6 ± 3.6%
Slow-twitch muscle (%) (C57BL/6 mice [1]): 29.4 ± 4.2%
Blood sugar (C57BL/6 mice [2]): 181.2 ± 10.9 mg/dL
Cholesterol (C57BL/6 mice [2]; serum): 164.9 ± 12.1 mg/dL
Triglyceride (C57BL/6 mice [2]; serum): 101.23 ± 11.3 mg/dL
